{"source": "patent US20050197350A1", "about": "“Novel quinoline, tetrahydroquinazoline, and pyrimidine derivatives and methods of treatment related to the use thereof” (TAISHO PHARMACEUTICAL CO., LTD., priority 2003, published 2005)"}
{"system": "MCH receptors", "test": "MCH receptor activity class (method not given)", "conditions": "MCH receptor; class by percent of control at 10^-7 M or IC50"}
{"compound": "CN(C)c1cc(N[C@H]2CC[C@@H](CNC(=O)c3ccc(Cl)c([N+](=O)[O-])c3)CC2)nc2ccccc12", "note": "[compound 154]", "class": "3 (Class 3 The value of percent of control at 10^−7 M was more than 60% or the value of IC50 was more than 200 nM.)"}
{"compound": "CN(C)c1cc(N[C@H]2CC[C@@H](CNC(=O)Cc3ccc(Cl)cc3)CC2)nc2ccccc12", "note": "[compound 155]", "class": "3 (Class 3 The value of percent of control at 10^−7 M was more than 60% or the value of IC50 was more than 200 nM.)"}
{"compound": "CN(C)c1cc(N[C@H]2CC[C@@H](CNC(=O)c3cccc(C#N)c3)CC2)nc2ccccc12", "note": "[compound 156]", "class": "3 (Class 3 The value of percent of control at 10^−7 M was more than 60% or the value of IC50 was more than 200 nM.)"}
{"compound": "CN(C)c1cc(N[C@H]2CC[C@@H](CNC(=O)c3cc(Cl)cc(Cl)c3)CC2)nc2ccccc12", "note": "[compound 157]", "class": "3 (Class 3 The value of percent of control at 10^−7 M was more than 60% or the value of IC50 was more than 200 nM.)"}
{"compound": "CN(C)c1cc(N[C@H]2CC[C@@H](CNC(=O)c3ccc(Cl)c(Cl)c3)CC2)nc2ccccc12", "note": "[compound 158]", "class": "3 (Class 3 The value of percent of control at 10^−7 M was more than 60% or the value of IC50 was more than 200 nM.)"}
{"compound": "CN(C)c1cc(N[C@H]2CC[C@@H](CNC(=O)C(c3ccccc3)c3ccccc3)CC2)nc2ccccc12", "note": "[compound 159, N-[(cis-4-{[4-(dimethylamino)quinolin-2-yl]amino}cyclohexyl)methyl]-2,2-diphenylacetamide]", "class": "2 (Class 2: The value of percent of control at 10^−7 M was from 40% to 60% or the value of IC′50 was from 50 nM to 200 nM.)"}
{"compound": "CN(C)c1cc(N[C@H]2CC[C@@H](CNC(=O)c3ccc(F)c(F)c3)CC2)nc2ccccc12", "note": "[compound 160, N-[(cis-4-{[4-(dimethylamino)quinolin-2-yl]amino}cyclohexyl)methyl]-3,4-difluorobenzamide]", "class": "3 (Class 3 The value of percent of control at 10^−7 M was more than 60% or the value of IC50 was more than 200 nM.)"}
{"compound": "CN(C)c1cc(N[C@H]2CC[C@@H](CNC(=O)c3cc(F)cc(F)c3)CC2)nc2ccccc12", "note": "[compound 161, N-[(cis-4-{[4-(dimethylamino)quinolin-2-yl]amino}cyclohexyl)methyl]-3,5-difluorobenzamide]", "class": "3 (Class 3 The value of percent of control at 10^−7 M was more than 60% or the value of IC50 was more than 200 nM.)"}
{"compound": "COc1ccc(OC)c(CC(=O)NC[C@H]2CC[C@@H](Nc3cc(N(C)C)c4ccccc4n3)CC2)c1", "note": "[compound 162]", "class": "3 (Class 3 The value of percent of control at 10^−7 M was more than 60% or the value of IC50 was more than 200 nM.)"}
{"compound": "CCSc1ncccc1C(=O)NC[C@H]1CC[C@@H](Nc2cc(N(C)C)c3ccccc3n2)CC1", "note": "[compound 163]", "class": "3 (Class 3 The value of percent of control at 10^−7 M was more than 60% or the value of IC50 was more than 200 nM.)"}
{"compound": "CN(C)c1cc(N[C@H]2CC[C@@H](CNC(=O)c3ccc(F)cc3)CC2)nc2ccccc12", "note": "[compound 164, N-[(cis-4-{[4-(dimethylamino)quinolin-2-yl]amino}cyclohexyl)methyl]-4-fluorobenzamide]", "class": "3 (Class 3 The value of percent of control at 10^−7 M was more than 60% or the value of IC50 was more than 200 nM.)"}
{"compound": "CN(C)c1cc(N[C@H]2CC[C@@H](CNC(=O)c3cc(F)cc(C(F)(F)F)c3)CC2)nc2ccccc12", "note": "[compound 165]", "class": "3 (Class 3 The value of percent of control at 10^−7 M was more than 60% or the value of IC50 was more than 200 nM.)"}
{"compound": "CN(C)c1cc(N[C@H]2CC[C@@H](CNC(=O)c3cc(F)c(Cl)cc3Cl)CC2)nc2ccccc12", "note": "[compound 166]", "class": "3 (Class 3 The value of percent of control at 10^−7 M was more than 60% or the value of IC50 was more than 200 nM.)"}
{"compound": "CCCCCC(=O)NC[C@H]1CC[C@@H](Nc2cc(N(C)C)c3ccccc3n2)CC1", "note": "[compound 167]", "class": "3 (Class 3 The value of percent of control at 10^−7 M was more than 60% or the value of IC50 was more than 200 nM.)"}
{"compound": "CN(C)c1cc(N[C@H]2CC[C@@H](CNC(=O)c3ccc(I)cc3)CC2)nc2ccccc12", "note": "[compound 168]", "class": "3 (Class 3 The value of percent of control at 10^−7 M was more than 60% or the value of IC50 was more than 200 nM.)"}
{"compound": "CSc1ncccc1C(=O)NC[C@H]1CC[C@@H](Nc2cc(N(C)C)c3ccccc3n2)CC1", "note": "[compound 169]", "class": "3 (Class 3 The value of percent of control at 10^−7 M was more than 60% or the value of IC50 was more than 200 nM.)"}
{"compound": "Cc1ccc(C(=O)NC[C@H]2CC[C@@H](Nc3cc(N(C)C)c4ccccc4n3)CC2)cc1[N+](=O)[O-]", "note": "[compound 170, N-[(cis-4-{[4-(dimethylamino)quinolin-2-yl]amino}cyclohexyl)methyl]-4-methyl-3-nitrobenzamide]", "class": "3 (Class 3 The value of percent of control at 10^−7 M was more than 60% or the value of IC50 was more than 200 nM.)"}
{"compound": "CN(C)c1cc(N[C@H]2CC[C@@H](CNC(=O)c3cccc([N+](=O)[O-])c3)CC2)nc2ccccc12", "note": "[compound 171, N-[(cis-4-{[4-(dimethylamino)quinolin-2-yl]amino}cyclohexyl)methyl]-3-nitrobenzamide]", "class": "3 (Class 3 The value of percent of control at 10^−7 M was more than 60% or the value of IC50 was more than 200 nM.)"}
{"compound": "CN(C)c1cc(N[C@H]2CC[C@@H](CNC(=O)Cc3ccccc3)CC2)nc2ccccc12", "note": "[compound 172]", "class": "3 (Class 3 The value of percent of control at 10^−7 M was more than 60% or the value of IC50 was more than 200 nM.)"}
{"compound": "CN(C)c1cc(N[C@H]2CC[C@@H](CNC(=O)C3C[C@H]3c3ccccc3)CC2)nc2ccccc12", "note": "(stereo partly shown) [compound 173]", "class": "3 (Class 3 The value of percent of control at 10^−7 M was more than 60% or the value of IC50 was more than 200 nM.)"}
{"compound": "CN(C)c1cc(N[C@H]2CC[C@@H](CNC(=O)c3ccc4c(c3)OCO4)CC2)nc2ccccc12", "note": "[compound 174]", "class": "3 (Class 3 The value of percent of control at 10^−7 M was more than 60% or the value of IC50 was more than 200 nM.)"}
{"compound": "Cc1cccc(C(=O)NC[C@H]2CC[C@@H](Nc3cc(N(C)C)c4ccccc4n3)CC2)c1", "note": "[compound 177, N-[(cis-4-{[4-(dimethylamino)quinolin-2-yl]amino}cyclohexyl)methyl]-3-methylbenzamide]", "class": "3 (Class 3 The value of percent of control at 10^−7 M was more than 60% or the value of IC50 was more than 200 nM.)"}
{"compound": "Cc1ccc(C(=O)NC[C@H]2CC[C@@H](Nc3cc(N(C)C)c4ccccc4n3)CC2)cc1", "note": "[compound 178]", "class": "3 (Class 3 The value of percent of control at 10^−7 M was more than 60% or the value of IC50 was more than 200 nM.)"}
{"compound": "CN(C)c1cc(N[C@H]2CC[C@@H](CNC(=O)c3cccs3)CC2)nc2ccccc12", "note": "[compound 179]", "class": "3 (Class 3 The value of percent of control at 10^−7 M was more than 60% or the value of IC50 was more than 200 nM.)"}
{"compound": "CN(C)c1cc(N[C@H]2CC[C@@H](CNC(=O)Cc3cccs3)CC2)nc2ccccc12", "note": "[compound 180]", "class": "3 (Class 3 The value of percent of control at 10^−7 M was more than 60% or the value of IC50 was more than 200 nM.)"}
{"compound": "CN(C)c1cc(N[C@H]2CC[C@@H](CNC(=O)c3cccc(OC(F)(F)F)c3)CC2)nc2ccccc12", "note": "[compound 181, N-[(cis-4-{[4-(dimethylamino)quinolin-2-yl]amino}cyclohexyl)methyl]-3-(trifluoromethoxy)benzamide]", "class": "3 (Class 3 The value of percent of control at 10^−7 M was more than 60% or the value of IC50 was more than 200 nM.)"}
{"compound": "CN(C)c1cc(NC2CCC(CNC(=O)OCc3ccccc3)CC2)nc2ccccc12", "note": "(stereo not shown) [compound 182]", "class": "3 (Class 3 The value of percent of control at 10^−7 M was more than 60% or the value of IC50 was more than 200 nM.)"}
{"compound": "CN(C)c1cc(NC2CCC(CNC(=O)OCc3ccc([N+](=O)[O-])cc3)CC2)nc2ccccc12", "note": "(stereo not shown) [compound 183]", "class": "3 (Class 3 The value of percent of control at 10^−7 M was more than 60% or the value of IC50 was more than 200 nM.)"}
{"compound": "Cc1cc(C(=O)NC[C@H]2CC[C@@H](Nc3cc(N(C)C)c4ccccc4n3)CC2)ccc1Br", "note": "[compound 184]", "class": "3 (Class 3 The value of percent of control at 10^−7 M was more than 60% or the value of IC50 was more than 200 nM.)"}
{"compound": "CN(C)c1cc(N[C@H]2CC[C@@H](CNC(=O)c3cccc(I)c3)CC2)nc2ccccc12", "note": "[compound 185, N-[(cis-4-{[4-(dimethylamino)quinolin-2-yl]amino}cyclohexyl)methyl]-3-iodobenzamide]", "class": "3 (Class 3 The value of percent of control at 10^−7 M was more than 60% or the value of IC50 was more than 200 nM.)"}
{"compound": "CN(C)c1cc(N[C@H]2CC[C@@H](CNC(=O)c3cccc(Cl)c3F)CC2)nc2ccccc12", "note": "[compound 186]", "class": "3 (Class 3 The value of percent of control at 10^−7 M was more than 60% or the value of IC50 was more than 200 nM.)"}
{"compound": "Cc1ccc(C(=O)NC[C@H]2CC[C@@H](Nc3cc(N(C)C)c4ccccc4n3)CC2)c(F)c1F", "note": "[compound 187]", "class": "3 (Class 3 The value of percent of control at 10^−7 M was more than 60% or the value of IC50 was more than 200 nM.)"}
{"compound": "CN(C)c1cc(N[C@H]2CC[C@@H](CNC(=O)c3ccc(F)cc3Cl)CC2)nc2ccccc12", "note": "[compound 188]", "class": "3 (Class 3 The value of percent of control at 10^−7 M was more than 60% or the value of IC50 was more than 200 nM.)"}
{"compound": "CN(C)c1cc(N[C@H]2CC[C@@H](CNC(=O)c3ccc(F)c(Cl)c3F)CC2)nc2ccccc12", "note": "[compound 189, 3-chloro-N-[(cis-4-{[4-(dimethylamino)quinolin-2-yl]amino}cyclohexyl)methy]-2,4-difluorobenzamide]", "class": "3 (Class 3 The value of percent of control at 10^−7 M was more than 60% or the value of IC50 was more than 200 nM.)"}
{"compound": "CN(C)c1cc(N[C@H]2CC[C@@H](CNC(=O)CSc3ccccc3)CC2)nc2ccccc12", "note": "[compound 190]", "class": "3 (Class 3 The value of percent of control at 10^−7 M was more than 60% or the value of IC50 was more than 200 nM.)"}
{"compound": "CN(C)c1cc(N[C@H]2CC[C@@H](CNC(=O)c3cccc(C(F)(F)F)c3F)CC2)nc2ccccc12", "note": "[compound 191]", "class": "3 (Class 3 The value of percent of control at 10^−7 M was more than 60% or the value of IC50 was more than 200 nM.)"}
{"compound": "CN(C)c1cc(N[C@H]2CC[C@@H](CNC(=O)c3cc(C(F)(F)F)ccc3F)CC2)nc2ccccc12", "note": "[compound 192]", "class": "3 (Class 3 The value of percent of control at 10^−7 M was more than 60% or the value of IC50 was more than 200 nM.)"}
